Among the data in PubChem BioAssay AID1259407 (Chemical Carcinogenesis Research Information System (CCRIS), 2018) are mutagenic call values, retold here.

The subject of this series is CCRIS mutagenicity, Ames/micronucleus/aberration tests. As to the kind of experiment: CCRIS mutagenicity studies.
Setting [1] is: Test System: AMES SALMONELLA TYPHIMURIUM, Strain/Indicator: TA100, Metabolic Activation: RAT, LIVER, S-9, AROCLOR 1254, Method: PREINCUBATION

Structures are written as SMILES. Activity calls are given as the source filed them. The rule behind the calls is not given here.

With `Nc1cc2c3ccccc3ccc2c2ccccc12`, the mutagenic call is, setting by setting: (Test System: AMES SALMONELLA TYPHIMURIUM, Strain/Indicator: TA98 (1,8-DNP6), Metabolic Activation: RAT LIVER, CYTOSOL, AROCLOR 1254, Method: STANDARD PLATE) “inactive; negative”; (Test System: AMES SALMONELLA TYPHIMURIUM, Strain/Indicator: TA98 (1,8-DNP6), Metabolic Activation: RAT LIVER, MICROSOMES, AROCLOR 1254, Method: STANDARD PLATE) “active; positive”; (Test System: AMES SALMONELLA TYPHIMURIUM, Strain/Indicator: TA98, Metabolic Activation: FERRET, LIVER, CYTOSOL, Method: STANDARD PLATE) “inactive; negative”; (Test System: AMES SALMONELLA TYPHIMURIUM, Strain/Indicator: TA98, Metabolic Activation: FERRET, LIVER, MICROSOMES, Method: STANDARD PLATE) “inactive; negative”; (Test System: AMES SALMONELLA TYPHIMURIUM, Strain/Indicator: TA98, Metabolic Activation: HAMSTER, LIVER, CYTOSOL, Method: STANDARD PLATE) “inactive; negative”; (Test System: AMES SALMONELLA TYPHIMURIUM, Strain/Indicator: TA98, Metabolic Activation: HAMSTER, LIVER, MICROSOMES, Method: STANDARD PLATE) “active; positive”. Moreover, the mutagenic call is “active; positive” (Test System: AMES SALMONELLA TYPHIMURIUM, Strain/Indicator: TA98, Metabolic Activation: HUMAN, LIVER, CYTOSOL, Method: STANDARD PLATE); “active; positive” (Test System: AMES SALMONELLA TYPHIMURIUM, Strain/Indicator: TA98, Metabolic Activation: NONE, Method: PREINCUBATION); “active; positive” (Test System: AMES SALMONELLA TYPHIMURIUM, Strain/Indicator: TA98, Metabolic Activation: PIG, LIVER, CYTOSOL, Method: STANDARD PLATE); “inactive; negative” (Test System: AMES SALMONELLA TYPHIMURIUM, Strain/Indicator: TA98, Metabolic Activation: PIG, LIVER, MICROSOMES, Method: STANDARD PLATE); “active; positive” (Test System: AMES SALMONELLA TYPHIMURIUM, Strain/Indicator: TA98, Metabolic Activation: RAT LIVER, CYTOSOL, AROCLOR 1254, Method: STANDARD PLATE); “active; positive” (Test System: AMES SALMONELLA TYPHIMURIUM, Strain/Indicator: TA98, Metabolic Activation: RAT LIVER, MICROSOMES, AROCLOR 1254, Method: STANDARD PLATE). Besides, the mutagenic call runs as follows: (Test System: AMES SALMONELLA TYPHIMURIUM, Strain/Indicator: TA98, Metabolic Activation: RAT, LIVER, CYTOSOL, AROCLOR 1254, Method: STANDARD PLATE) “active; positive”; (Test System: AMES SALMONELLA TYPHIMURIUM, Strain/Indicator: TA98, Metabolic Activation: RAT, LIVER, CYTOSOL, BENZO[A]PYRENE, Method: STANDARD PLATE) “active; positive”; (Test System: AMES SALMONELLA TYPHIMURIUM, Strain/Indicator: TA98, Metabolic Activation: RAT, LIVER, CYTOSOL, CLOFIBRATE, Method: STANDARD PLATE) “active; positive”; (Test System: AMES SALMONELLA TYPHIMURIUM, Strain/Indicator: TA98, Metabolic Activation: RAT, LIVER, CYTOSOL, DEXAMETHASONE, Method: STANDARD PLATE) “active; positive”; (Test System: AMES SALMONELLA TYPHIMURIUM, Strain/Indicator: TA98, Metabolic Activation: RAT, LIVER, CYTOSOL, ISONIAZID, Method: STANDARD PLATE) “active; positive”; (Test System: AMES SALMONELLA TYPHIMURIUM, Strain/Indicator: TA98, Metabolic Activation: RAT, LIVER, CYTOSOL, PHENOBARBITAL, Method: STANDARD PLATE) “active; positive”. The mutagenic call is “active; positive” (Test System: AMES SALMONELLA TYPHIMURIUM, Strain/Indicator: TA98, Metabolic Activation: RAT, LIVER, MICROSOMES, AROCLOR 1254, Method: STANDARD PLATE); “active; positive” (Test System: AMES SALMONELLA TYPHIMURIUM, Strain/Indicator: TA98, Metabolic Activation: RAT, LIVER, MICROSOMES, BENZO[A]PYRENE, Method: STANDARD PLATE); “active; positive” (Test System: AMES SALMONELLA TYPHIMURIUM, Strain/Indicator: TA98, Metabolic Activation: RAT, LIVER, MICROSOMES, CLOFIBRATE, Method: STANDARD PLATE); “active; positive” (Test System: AMES SALMONELLA TYPHIMURIUM, Strain/Indicator: TA98, Metabolic Activation: RAT, LIVER, MICROSOMES, DEXAMETHASONE, Method: STANDARD PLATE); “active; positive” (Test System: AMES SALMONELLA TYPHIMURIUM, Strain/Indicator: TA98, Metabolic Activation: RAT, LIVER, MICROSOMES, ISONIAZID, Method: STANDARD PLATE); “active; positive” (Test System: AMES SALMONELLA TYPHIMURIUM, Strain/Indicator: TA98, Metabolic Activation: RAT, LIVER, MICROSOMES, PHENOBARBITAL, Method: STANDARD PLATE). The mutagenic call was “active; positive” (Test System: AMES SALMONELLA TYPHIMURIUM, Strain/Indicator: TA98, Metabolic Activation: RAT, LIVER, MICROSOMES, Method: STANDARD PLATE); “active; positive” (Test System: AMES SALMONELLA TYPHIMURIUM, Strain/Indicator: TA98, Metabolic Activation: RAT, LIVER, S-9, AROCLOR 1254, Method: PREINCUBATION); “active; positive” (Test System: AMES SALMONELLA TYPHIMURIUM, Strain/Indicator: TA100, Metabolic Activation: NONE, Method: PREINCUBATION); “inactive; negative” (Test System: AMES SALMONELLA TYPHIMURIUM, Strain/Indicator: TA100, Metabolic Activation: NONE, Method: STANDARD PLATE); “inactive; negative” (Test System: AMES SALMONELLA TYPHIMURIUM, Strain/Indicator: TA100, Metabolic Activation: RAT, LIVER, MICROSOMES, 6-AMINOCHRYSENE, Method: STANDARD PLATE); “active; positive” (Test System: AMES SALMONELLA TYPHIMURIUM, Strain/Indicator: TA100, Metabolic Activation: RAT, LIVER, MICROSOMES, AROCLOR 1254, Method: STANDARD PLATE). Further, the mutagenic call was “active; positive” (Test System: AMES SALMONELLA TYPHIMURIUM, Strain/Indicator: TA100, Metabolic Activation: RAT, LIVER, MICROSOMES, Method: STANDARD PLATE); “active; positive” under setting [1]; “active; positive” (Test System: AMES SALMONELLA TYPHIMURIUM, Strain/Indicator: TA100, Metabolic Activation: RAT, LIVER, S-9, AROCLOR 1254, Method: STANDARD PLATE); “inactive; negative” (Test System: AMES SALMONELLA TYPHIMURIUM, Strain/Indicator: TA1535, Metabolic Activation: NONE, Method: STANDARD PLATE); “inactive; negative” (Test System: AMES SALMONELLA TYPHIMURIUM, Strain/Indicator: TA1535, Metabolic Activation: RAT, LIVER, S-9, AROCLOR 1254, Method: STANDARD PLATE); “inactive; negative” (Test System: AMES SALMONELLA TYPHIMURIUM, Strain/Indicator: TA1537, Metabolic Activation: NONE, Method: STANDARD PLATE). For the same compound, the mutagenic call reads like this: (Test System: AMES SALMONELLA TYPHIMURIUM, Strain/Indicator: TA1538, Metabolic Activation: NONE, Method: STANDARD PLATE) “inactive; negative”; (Test System: CHINESE HAMSTER OVARY, Strain/Indicator: CHO-K1-BH4 (HGPRT)/6-THIOGUANINE, Metabolic Activation: NONE, Method: STANDARD PLATE) “inactive; negative”; (Test System: CHINESE HAMSTER OVARY, Strain/Indicator: CHO-K1-BH4 (HGPRT)/6-THIOGUANINE, Metabolic Activation: RAT, LIVER, S-9, AROCLOR 1254, Method: STANDARD PLATE) “active; positive”; (Test System: CHINESE HAMSTER OVARY, Strain/Indicator: CHO-UV5 (HGPRT)/6-THIOGUANINE, Metabolic Activation: NONE, Method: STANDARD PLATE) “inactive; negative”; (Test System: CHINESE HAMSTER OVARY, Strain/Indicator: CHO-UV5 (HGPRT)/6-THIOGUANINE, Metabolic Activation: RAT, LIVER, S-9, AROCLOR 1254, Method: STANDARD PLATE) “active; positive”; (Test System: UDS GUINEA PIG HEPATOCYTES, Strain/Indicator: THY INCORP, Metabolic Activation: NONE, Method: AUTORADIOGRAPHY) “active; positive”. Moreover, the mutagenic call is, setting by setting: (Test System: UDS HUMAN HEPATOCYTES, Strain/Indicator: THY INCORP, Metabolic Activation: NONE, Method: AUTORADIOGRAPHY) “active; positive”; (Test System: UDS MONKEY HEPATOCYTES, Strain/Indicator: THY INCORP, Metabolic Activation: NONE, Method: AUTORADIOGRAPHY) “active; positive”; (Test System: UDS RAT HEPATOCYTES, Strain/Indicator: THY INCORP, Metabolic Activation: AROCLOR 1254, Method: AUTORADIOGRAPHY) “active; positive”; (Test System: UDS RAT HEPATOCYTES, Strain/Indicator: THY INCORP, Metabolic Activation: NONE, Method: AUTORADIOGRAPHY) “active; positive”.

Consider `O=C1CCc2c1cc(C(F)(F)F)c1c3c(ccc21)[C@H](O)[C@@H](O)C=C3`, for which the mutagenic call (Test System: AMES SALMONELLA TYPHIMURIUM, Strain/Indicator: TA100, Metabolic Activation: RAT, LIVER, S-9, AROCLOR 1254) was “active; positive”.

For the compound `Cc1cc2c(c3cc4ccccc4cc13)C=C[C@H](O)[C@H]2O`, the mutagenic call under setting [1] was “active; positive”.
